Assay results published in US8557796B2, “Substituted 1-oxa-2,8-diaza-spiro [4,5] dec-2-ene derivatives and related treatment methods” (Gruenenthal GmbH, priority 2001, dated 2013).

These compounds were tested on batrachotoxin (BTX) binding site (binding site 2) of the sodium channel (assay: Bond test on the sodium channel, binding site 2 (BTX bond), [3H]-batrachotoxinin A20 α-benzoate displacement). Settings: rat cerebrocortex synaptosomes.

Point of comparison: Cc1ccc(S(=O)(=O)N2CCC3(CC2)CC(C(=O)N(CCC#N)Cc2ccccc2)=NO3)cc1 [Example 28, 8-(toluene-4-sulphonyl)-1-oxa-2,8-diaza-spiro[4,5]dec-2-ene-3-carboxylic acid benzyl-(2-cyano-ethyl)-amide], “BTX bond, 10 μM, % inhibition” value 52%. Against it:
- O=C(C1=NOC2(CCN(S(=O)(=O)c3cc(Cl)ccc3Cl)CC2)C1)N1CCN(Cc2ccccc2)CC1 [Example 209, (4-benzyl-piperazin-l-yl)-[8-(2,5-dichloro-benzenesulphonyl)-1-oxa-2,8-diaza-spiro[4,5]dec-2-en-3-yl]-methanone] — higher, 61%
- O=C(NCc1cccs1)C1=NOC2(CCN(C(=O)c3ccc(F)c(Cl)c3)CC2)C1 [Example 184, 8-(3-chloro-4-fluorobenzoyl)-1-oxa-2,8-diaza-spiro[4,5]dec-2-ene-3-carboxylic acid (thiophen-2-ylmethyl)-amide] — higher, 73%
- O=C(C1=NOC2(CCN(S(=O)(=O)c3cc(Cl)ccc3Cl)CC2)C1)N(CCc1ccccc1)Cc1ccccc1 [Example 98, 8-(2,5-dichloro-benzenesulphonyl)-1-oxa-2,8-diaza-spiro[4,5]dec-2-ene-3-carboxylic acid benzyl-phenethyl-amide] — higher, 56%
- COc1ccc(OC)c(CN(Cc2ccco2)C(=O)C2=NOC3(CCN(S(=O)(=O)c4ccc(F)cc4)CC3)C2)c1 [Example 160] — higher, 75%
- O=C(NC1CCCC1)C1=NOC2(CCN(C(=O)c3ccc([N+](=O)[O-])cc3Cl)CC2)C1 [Example 5, 8-(2-chloro-4-nitro-benzoyl)-1-oxa-2,8-diaza-spiro[4,5]dec-2-ene-3-carboxylic acid cyclopentylamide] — higher, 64%
- CCOP(=O)(Cc1ccc(NC(=O)C2=NOC3(CCN(S(=O)(=O)Cc4ccccc4)CC3)C2)cc1)OCC [Example 2] — higher, 55%
- O=C(C1=NOC2(CCN(S(=O)(=O)c3cccs3)CC2)C1)N1CCN(CCCc2ccccc2)CC1 [Example 14, [4-(3-phenyl-propyl)-piperazin-l-yl]-[8-(thiophene-2-sulphonyl)-1-oxa-2,8-diaza-spiro[4,5]dec-2-en-3-yl]-methanone] — higher, 79%
- O=C(NC1CCCC1OCc1ccccc1)C1=NOC2(CCN(S(=O)(=O)Cc3ccccc3)CC2)C1 (centres unmarked) [Example 20, 8-phenylmethanesulphonyl-1-oxa-2,8-diaza-spiro[4,5]dec-2-ene-3-carboxylic acid (2-benzyloxy-cyclopentyl)-amide] — higher, 69%
- C=C(C)CN(CC)C(=O)C1=NOC2(CCN(S(=O)(=O)c3ccc(OC(F)(F)F)cc3)CC2)C1 [Example 103, 8-(4-trifluoromethoxy-benzenesulphonyl)-1-oxa-2,8-diaza-spiro[4,5]dec-2-ene-3carboxylic acid ethyl-(2-methyl-allyl)-amide] — higher, 53%
- O=C(NCc1cccs1)C1=NOC2(CCN(C(=O)c3cccc4ccccc34)CC2)C1 [Example 192, 8-(naphthalene-1-carbonyl)-1-oxa-2,8-diaza-spiro[4,5]dec-2-ene-3-carboxylic acid (thiophen-2-ylmethyl)-amide] — higher, 87%
- COc1cc(OC)cc(N2CCN(C(=O)C3=NOC4(CCN(S(=O)(=O)c5ccc(Cl)s5)CC4)C3)CC2)c1 [Example 71, [8-(5-chloro-thiophene-2-sulphonyl)-1-oxa-2,8-diaza-spiro[4,5]dec-2-en-3-yl]-[4-(3,5-dimethoxy-phenyl)-piperazin-l-yl]-methanone] — higher, 54%
- CC(Cc1ccc(Cl)cc1)NC(=O)C1=NOC2(CCN(S(=O)(=O)c3ccc(Cl)s3)CC2)C1 (centres unmarked) [Example 168, 8-(5-chloro-thiophene-2-sulphonyl)-1-oxa-2,8-diaza-spiro[4,5]dec-2-ene-3-carboxylic acid [2-(4-chloro-phenyl)-1-methyl-ethyl]-amide] — higher, 69%
- CC(NC(=O)C1=NOC2(CCN(S(=O)(=O)c3cccs3)CC2)C1)c1ccccc1 (centres unmarked) [Example 8, 8-(thiophene-2-sulphonyl)-1-oxa-2,8-diaza-spiro[4,5]dec-2-ene-3-carboxylic acid (1-phenyl-ethyl)-amide] — higher, 63%
- CCCC(=O)N1CCC2(CC1)CC(C(=O)NC1CCN(C(=O)OCC)CC1)=NO2 [Example 74, 4-[(8-butyryl-1-oxa-2,8-diaza-spiro[4,5]dec-2-ene-3-carbonyl)-amino]-piperidine-l-carboxylic acid ethyl ester] — lower, 47%
- CN1CCCC1CCNC(=O)C1=NOC2(CCN(S(=O)(=O)c3ccc(Cl)s3)CC2)C1 (centres unmarked) [Example 61, 8-(5-chloro-thiophene-2-sulphonyl)-1-oxa-2,8-diaza-spiro[4,5]dec-2-ene-3-carboxylic acid [2-(1-methyl-pyrrolidin-2-yl)-ethyl]-amide] — higher, 79%
- O=C(C1=NOC2(CCN(S(=O)(=O)c3cccc(C(F)(F)F)c3)CC2)C1)N1CCC(Cc2ccccc2)CC1 [Example 211, (4-benzyl-piperidin-l-yl)-[8-(3-trifluoromethyl-benzene-sulphonyl)-1-oxa-2,8-diaza-spiro[4,5]dec-2-en-3-yl]-methanone] — lower, 48%
- O=C(C1=NOC2(CCN(S(=O)(=O)c3ccc(OC(F)(F)F)cc3)CC2)C1)N(CCc1ccccc1)Cc1ccccc1 [Example 97, 8-(4-trifluoromethoxy-benzenesulphonyl)-1-oxa-2,8-diaza-spiro[4,5]dec-2-ene-3-carboxylic acid benzyl-phenethyl-amide] — higher, 79%
- O=C(NCc1ccc2c(c1)OCO2)C1=NOC2(CCN(S(=O)(=O)c3ccc(Cl)s3)CC2)C1 [Example 30, 8-(5-chloro-thiophene-2-sulphonyl)-1-oxa-2,8-diaza-spiro[4,5]dec-2-ene-3-carboxylic acid (benzo[1,3]dioxol-5-ylmethyl)-amide] — higher, 56%
- O=C(NCc1cccs1)C1=NOC2(CCN(S(=O)(=O)c3ccc(Cl)cc3)CC2)C1 [Example 127, 8-(4-chloro-benzenesulphonyl)-1-oxa-2,8-diaza-spiro[4,5]dec-2-ene-3-carboxylic acid (thiophen-2-ylmethyl)-amide] — higher, 70%
- O=C(NCc1cccs1)C1=NOC2(CCN(C(=O)c3ccc(Br)cc3)CC2)C1 [Example 141] — higher, 61%
- CC(C)CC(NC(=O)C1=NOC2(CCN(S(=O)(=O)c3cccc(C(F)(F)F)c3)CC2)C1)C(=O)OC(C)(C)C (centres unmarked) [Example 214, 4-methyl-2-{[8-(3-trifluoromethyl-benzenesulphonyl)-1-oxa-2,8-diaza-spiro[4,5]dec-2-ene-3-carbonyl]-amino}-pentanoic acid tert-butyl ester] — higher, 61%
- O=C(C1=NOC2(CCN(S(=O)(=O)c3cccc(C(F)(F)F)c3)CC2)C1)N1CCN(c2cc(C(F)(F)F)ccn2)CC1 [Example 119] — higher, 72%
- O=C(C1=NOC2(CCN(S(=O)(=O)c3ccc(F)cc3)CC2)C1)N1CCN(CCCc2ccccc2)CC1 [Example 186, [8-(4-fluoro-benzenesulphonyl)-1-oxa-2,8-diaza-spiro[4,5]dec-2-en-3-yl]-[4-(3-phenyl-propyl)-piperazin-1-yl]-methanone] — higher, 56%
- Cc1ccccc1N1CCN(C(=O)C2=NOC3(CCN(S(=O)(=O)c4cccs4)CC3)C2)CC1 [Example 27, [8-(thiophene-2-sulphonyl)-1-oxa-2,8-diaza-spiro[4,5]dec-2-en-3-yl]-(4-o-tolyl-piperazin-1-yl)-methanone] — higher, 74%
- CN(C)S(=O)(=O)N1CCC2(CC1)CC(C(=O)NC1CCCC1OCc1ccccc1)=NO2 (centres unmarked) [Example 163, 8-dimethylsulphamoyl-1-oxa-2,8-diaza-spiro[4,5]dec-2-ene-3-acarboxylic cid (2-benzyloxy-cyclopentyl)-amide] — lower, 40%
- COCCOCC(=O)N1CCC2(CC1)CC(C(=O)NCc1ccccc1)=NO2 [Example 87, 8-[2-(2-methoxy-ethoxy)-acetyl]-1-oxa-2,8-diaza-spiro[4,5]dec-2-ene-3-carboxylic acid benzylamide] — lower, 42%
- O=C(NCc1cccs1)C1=NOC2(CCN(C(=O)C=Cc3ccccc3)CC2)C1 [Example 106] — higher, 62%
- O=C(NCc1cccs1)C1=NOC2(CCN(C(=O)c3cccc(Cl)c3F)CC2)C1 [Example 146, 8-(3-chloro-2-fluorobenzoyl)-1-oxa-2,8-diaza-spiro[4,5]dec-2-ene-3-carboxylic acid (thiophen-2-ylmethyl)-amide] — higher, 67%
- O=C(C1=NOC2(CCN(S(=O)(=O)c3cccs3)CC2)C1)N1CCN(C2CCCCCC2)CC1 [Example 3, (4-cycloheptyl-piperazin-l-yl)-[8-(thiophene-2-sulphonyl)-1-oxa-2,8-diaza-spiro [4,5]dec-2-en-3-yl]-methanone] — higher, 78%
- COc1cccc(CN2CCC(NC(=O)C3=NOC4(CCN(S(=O)(=O)c5cc(Cl)ccc5Cl)CC4)C3)C2)c1 (centres unmarked) [Example 64] — higher, 91%
- O=C(NC1CCN(Cc2ccc(C(F)(F)F)cc2)C1)C1=NOC2(CCN(S(=O)(=O)c3cccs3)CC2)C1 (centres unmarked) [Example 26, 8-(thiophene-2-sulphonyl)-1-oxa-2,8-diaza-spiro[4,5]dec-2-ene-3-carboxylic acid [1-(4-trifluoromethyl-benzyl)-pyrrolidin-3-yl]-amide] — higher, 84%
- Cc1oc(C(C)(C)C)cc1C(=O)N1CCC2(CC1)CC(C(=O)NC1CCCC1)=NO2 [Example 126, 8-(5-tert-butyl-2-methyl-furan-3-carbonyl)-1-oxa-2,8-diaza-spiro[4,5]dec-2-ene-3-carboxylic acid cyclopentylamide] — higher, 56%
- O=C(NC1CCCC1OCc1ccccc1)C1=NOC2(CCN(S(=O)(=O)c3ccc(F)cc3)CC2)C1 (centres unmarked) [Example 199] — higher, 67%

Same assay, conditions: rat cerebrocortex synaptosomes, 10 µM

With COc1ccc(S(=O)(=O)N2CCC3(CC2)CC(C(=O)NC2CCCC2OCc2ccccc2)=NO3)cc1 (centres unmarked) [Example 169, 8-(4-methoxy-benzenesulphonyl)-1-oxa-2,8-diaza-spiro[4,5]dec-2-ene-3-carboxylic acid (2-benzyloxy-cyclopentyl)-amide] the “BTX bond, 10 μM, % inhibition” value was 48%.
